Test results as given in patent publication US5602101A, “Antithrombotic agents” (priority 1994, dated 1997).

target: T1, tissue plasminogen activator (t-PA) (Homo sapiens, UniProt P00750); assay: Serine protease inhibition, t-PA (chromogenic substrate), Kass; assay type: biochemical; conditions: at 13 μg/mL
T1 construct: purchased American Diagnostics, Greenwich, Conn
Protocol: (§1) The assay is carried out by mixing 50 μl buffer (0.03M Tris, 0.15M NaCl, pH 7.4), 25 μl of human thrombin solution (purified human thrombin Enzyme Research Laboratories, South Bend, Ind.) at 8 NIH units/ml and 25 μl of test compound in a solvent (50% aqueous methanol (v:v)). Then 150 μl of an aqueous solution of the chromogenic substrate (at 0.25 mg/ml) are added and the rates of hydrolysis of the substrate are measured by monitoring the reactions at 405 nm for the release of p-nitroaniline. Standard curves are constructed by plotting free thrombin concentration against hydrolysis rate. The hydrolysis rates observed with test compounds are then converted to "free thrombin" values in the respective assays by use of the standard curves. The bound thrombin (bound to test compound) is calculated by subtracting the amount of free thrombin observed in each assay from the known initial amount of thrombin used in the assay. The amount of free inhibitor in each assay is calculated by subtracting the number of moles of bound thrombin from the number of moles of added inhibitor (test compound).
(§2) Kass is calculated for a range of concentrations of test compounds and the mean value is reported in units of liter per mole.
(§3) By substantially following the procedures described above for human thrombin, and using other human blood coagulation system serine proteases, and using fibrinolytic system serine proteases, with the appropriate chromogenic substrate, identified below, selectivity of the compounds of the present invention with respect to the coagulation factor serine proteases and to the fibrinolytic serine proteases are evaluated as well as their substantial lack of interference with human plasma clot fibrinolysis.
(§4) Human factors X, Xa, IXa, XIa, and xIIa are purchased from Enzyme Research Laboratories, South Bend, Ind.; human urokinase from Leo Pharmaceuticals, Denmark; and recombinant activated Protein C (aPC) is prepared at Eli Lilly and Co. substantially according to U.S. Pat. No. 4,981,952 incorporated by reference herein in its entirety. Chromogenic substrates: N-Benzoyl-Ile-Glu-Gly-Arg-p-nitroanilide (for factor Xa); N-Cbz-D-Arg-Gly-Arg-p-nitroanilide (for factor IXa assay as the factor Xa substrate) pyroglutamyl-Pro-Arg-p-nitroanilide (for factor XIa and for aPC); H-D-Pro-Phe-Arg-p-nitroanilide (for factor XIIa); and pyroglutamyl-Gly-Arg-p-nitroanilide (for urokinase); are purchased from KabiVitrum, Stockholm, Sweden, or from Midwest Biotech, Fishers, Indiana. Bovine trypsin is purchased from Worthington Biochemicals, Freehold, N.J., and human plasma kallikrein from Kabi Vitrum, Stockholm, Sweden. N-Benzoyl-Phe-Val-Arg-p-nitroanilide, the substrate for human thrombin and for trypsin, is synthesized according to procedures described above for the compounds of the present invention, known methods of peptide coupling from commercially available reactants, or was purchased from Midwest Biotech, Fishers, Ind. Human plasmin is purchased from Boehringer Mannheim, Indianapolis, Ind.; nt-PA is purchased as single chain activity reference from American Diagnostics, Greenwich, Conn.; modified-t-PA6 (mt-PA6) is prepared at Eli Lilly and Company by procedure known in the art (See, Burck, et al., J. Biol. Chem., 265, […] (1990). Plasmin chromogenic substrate H-D-Val-Leu-Lys-p-nitroanilide and tissue plasminegen activator (t-PA) substrate H-D-Ile-Pro-Arg-p-nitroanilide are purchased from Kabi Vitrum, Stockholm, Sweden.

T1 sequence (P00750 36-562): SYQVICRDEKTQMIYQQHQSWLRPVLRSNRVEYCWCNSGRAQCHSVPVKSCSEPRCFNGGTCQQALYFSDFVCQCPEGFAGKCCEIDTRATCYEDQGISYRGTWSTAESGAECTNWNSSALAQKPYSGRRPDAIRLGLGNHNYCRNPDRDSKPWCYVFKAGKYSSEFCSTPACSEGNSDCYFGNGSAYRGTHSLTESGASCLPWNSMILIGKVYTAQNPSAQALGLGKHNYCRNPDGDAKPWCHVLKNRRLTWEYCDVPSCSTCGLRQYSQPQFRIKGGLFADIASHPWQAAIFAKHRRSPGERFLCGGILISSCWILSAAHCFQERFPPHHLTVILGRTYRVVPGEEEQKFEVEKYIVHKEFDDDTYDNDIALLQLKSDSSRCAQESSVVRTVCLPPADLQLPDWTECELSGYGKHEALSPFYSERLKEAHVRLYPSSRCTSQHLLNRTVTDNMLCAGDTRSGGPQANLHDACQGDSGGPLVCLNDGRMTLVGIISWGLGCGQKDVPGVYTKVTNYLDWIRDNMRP

Row | Compound | t-Pa inhibition [%]
1 | CN(C)S(=O)(=O)N[C@H](Cc1ccccc1)C(=O)N1CCC[C@H]1C(=O)N[C@H](C=O)CCCNC(=N)N.Cl [Example 12, Me2 NSO2 -D-Phe-Pro-Arg-H.HCl] | 100

same assay, conditions: substrate H-D-Ile-Pro-Arg-p-nitroanilide

Row | Compound | Enzyme Kass, t-Pa [L/mol × 10^6]
2 | CS(=O)(=O)N[C@H](Cc1ccccc1)C(=O)N1CCC[C@H]1C(=O)N[C@H](C=O)CCCNC(=N)N.Cl [Example 7, MeSO2 -D-Phe-Pro-Arg-H.HCl] | 13

target: T2, Bovine trypsin (Bos taurus, UniProt P00760); assay: Serine protease inhibition, trypsin (chromogenic substrate), Kass; assay type: biochemical; conditions: substrate N-Benzoyl-Phe-Val-Arg-p-nitroanilide
T2 construct: Bovine trypsin is purchased from Worthington Biochemicals, Freehold, N.J; purchased Worthington Biochemicals, Freehold, N.J
T2 sequence (P00760 24-246): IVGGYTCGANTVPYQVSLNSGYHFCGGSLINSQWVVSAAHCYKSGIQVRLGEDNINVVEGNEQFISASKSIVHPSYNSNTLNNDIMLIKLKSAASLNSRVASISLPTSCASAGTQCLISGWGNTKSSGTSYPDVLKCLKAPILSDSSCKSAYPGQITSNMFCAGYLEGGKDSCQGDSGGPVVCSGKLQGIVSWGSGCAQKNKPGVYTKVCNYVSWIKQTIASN
Protocol: as §1, §2, §3, §4

Row | Compound | Enzyme Kass, Trypsin [L/mol × 10^6]
3 | CS(=O)(=O)N[C@H](Cc1ccccc1)C(=O)N1CCC[C@H]1C(=O)N[C@H](C=O)CCCNC(=N)N.Cl [Example 7, MeSO2 -D-Phe-Pro-Arg-H.HCl] | 220
4 | CN(C)S(=O)(=O)N[C@H](Cc1ccccc1)C(=O)N1CCC[C@H]1C(=O)N[C@H](C=O)CCCNC(=N)N.Cl [Example 12, Me2 NSO2 -D-Phe-Pro-Arg-H.HCl] | 160

target: T3, human thrombin (Homo sapiens, UniProt P00734); assay: Inhibition of amidase activity of thrombin (chromogenic substrate), Kass; assay type: biochemical; conditions: substrate N-benzoyl-Phe-Val-Arg-p-nitroanilide, pH 7.4
T3 construct: purified human thrombin Enzyme Research Laboratories, South Bend, Ind; purchased Enzyme Research Laboratories, South Bend, Ind
Protocol: as §1
The Kass value is the hypothetical equilibrium constant for the reaction between thrombin and the test compound (I). [drawing 53]
as §2

Row | Compound | Enzyme Kass, Human Thrombin [L/mol × 10^6]
5 | CS(=O)(=O)N[C@H](Cc1ccccc1)C(=O)N1CCC[C@H]1C(=O)N[C@H](C=O)CCCNC(=N)N.Cl [Example 7, MeSO2 -D-Phe-Pro-Arg-H.HCl] | 690
6 | CN(C)S(=O)(=O)N[C@H](Cc1ccccc1)C(=O)N1CCC[C@H]1C(=O)N[C@H](C=O)CCCNC(=N)N.Cl [Example 12, Me2 NSO2 -D-Phe-Pro-Arg-H.HCl] | 300

target: T4, Human plasmin (Homo sapiens, UniProt P00747); assay: Serine protease inhibition, plasmin (chromogenic substrate), Kass; assay type: biochemical; conditions: substrate H-D-Val-Leu-Lys-p-nitroanilide
T4 construct: Human plasmin is purchased from Boehringer Mannheim, Indianapolis, Ind; purchased Boehringer Mannheim, Indianapolis, Ind
T4 sequence (P00747 581-810 limits assumed): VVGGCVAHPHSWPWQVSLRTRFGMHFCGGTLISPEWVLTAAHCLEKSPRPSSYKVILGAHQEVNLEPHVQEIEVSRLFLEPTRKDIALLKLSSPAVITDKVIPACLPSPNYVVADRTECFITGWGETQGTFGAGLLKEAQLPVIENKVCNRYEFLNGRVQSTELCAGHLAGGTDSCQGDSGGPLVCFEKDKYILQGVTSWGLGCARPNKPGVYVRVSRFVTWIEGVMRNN
T4 sequence (P00747 97-580 partner limits assumed): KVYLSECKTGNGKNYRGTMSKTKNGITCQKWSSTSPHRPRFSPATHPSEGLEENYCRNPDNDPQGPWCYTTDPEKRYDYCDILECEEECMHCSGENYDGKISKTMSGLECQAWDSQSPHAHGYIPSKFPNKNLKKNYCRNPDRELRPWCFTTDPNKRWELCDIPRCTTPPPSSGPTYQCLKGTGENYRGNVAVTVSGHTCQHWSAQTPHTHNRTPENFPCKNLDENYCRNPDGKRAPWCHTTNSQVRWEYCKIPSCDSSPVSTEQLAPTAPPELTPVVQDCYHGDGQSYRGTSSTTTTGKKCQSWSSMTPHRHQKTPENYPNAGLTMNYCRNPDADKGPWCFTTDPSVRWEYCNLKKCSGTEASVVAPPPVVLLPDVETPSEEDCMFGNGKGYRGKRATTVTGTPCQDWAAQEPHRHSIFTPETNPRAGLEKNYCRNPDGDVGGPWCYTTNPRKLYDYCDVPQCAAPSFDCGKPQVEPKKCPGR
Protocol: as §1, §2, §3, §4

Row | Compound | Enzyme Kass, Plasmin [L/mol × 10^6]
7 | CS(=O)(=O)N[C@H](Cc1ccccc1)C(=O)N1CCC[C@H]1C(=O)N[C@H](C=O)CCCNC(=N)N.Cl [Example 7, MeSO2 -D-Phe-Pro-Arg-H.HCl] | 17
8 | CN(C)S(=O)(=O)N[C@H](Cc1ccccc1)C(=O)N1CCC[C@H]1C(=O)N[C@H](C=O)CCCNC(=N)N.Cl [Example 12, Me2 NSO2 -D-Phe-Pro-Arg-H.HCl] | 21

target: T5, factor Xa (Homo sapiens, UniProt P00742); assay: Serine protease inhibition, factor Xa (chromogenic substrate), Kass; assay type: biochemical; conditions: substrate N-Benzoyl-Ile-Glu-Gly-Arg-p-nitroanilide
T5 construct: Human factors X, Xa, IXa, XIa, and xIIa are purchased from Enzyme Research Laboratories; purchased Enzyme Research Laboratories, South Bend, Ind
T5 sequence (P00742 235-488 limits assumed): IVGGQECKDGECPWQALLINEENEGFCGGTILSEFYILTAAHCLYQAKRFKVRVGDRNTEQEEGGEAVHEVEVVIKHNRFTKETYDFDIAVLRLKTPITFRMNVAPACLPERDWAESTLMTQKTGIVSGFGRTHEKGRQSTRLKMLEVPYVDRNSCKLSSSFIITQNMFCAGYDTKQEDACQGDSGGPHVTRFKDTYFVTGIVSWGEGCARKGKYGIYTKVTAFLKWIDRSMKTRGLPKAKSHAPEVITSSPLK
T5 sequence (P00742 41-179 partner limits assumed): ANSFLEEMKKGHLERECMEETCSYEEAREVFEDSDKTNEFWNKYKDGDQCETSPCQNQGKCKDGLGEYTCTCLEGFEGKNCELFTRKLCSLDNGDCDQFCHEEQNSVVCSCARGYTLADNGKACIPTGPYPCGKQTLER
Protocol: as §1, §2, §3, §4

Row | Compound | Enzyme Kass, Xa [L/mol × 10^6]
9 | CS(=O)(=O)N[C@H](Cc1ccccc1)C(=O)N1CCC[C@H]1C(=O)N[C@H](C=O)CCCNC(=N)N.Cl [Example 7, MeSO2 -D-Phe-Pro-Arg-H.HCl] | 2.4
10 | CN(C)S(=O)(=O)N[C@H](Cc1ccccc1)C(=O)N1CCC[C@H]1C(=O)N[C@H](C=O)CCCNC(=N)N.Cl [Example 12, Me2 NSO2 -D-Phe-Pro-Arg-H.HCl] | 3.9

tested on: Human Plasma; assay: Anticoagulation in human plasma, thrombin time (TT); assay type: biochemical; conditions: concentration required to double the thrombin time
Protocol: (§5) Dog plasma and rat plasma are obtained from conscious mixed-breed hounds (either sex, Hazelton-LRE, Kalamazoo, Mich., U.S.A.) or from anesthetized male Sprague-Dawley rats (Harlan Sprague-Dawley, Inc., Indianapolis, Ind., U.S.A.) by venipuncture into 3.8 percent citrate. Fibrinogen is prepared from in-date ACD human blood as the fraction I-2 according to previous procedures and specifications. Smith, Biochem. Chem. […] Human fibrinogen is also purchased as 98 percent pure/plasmin free from American Diagnostics, Greenwich, Conn. Coagulation reagents ACTIN, Thromboplastin, and Human plasma are from Baxter Healthcare Corp., Dade Division, Miami, Fla. Bovine thrombin from Parke-Davis (Ann Arbor, Mich.) is used for coagulation assays in plasma. Coagulation assay procedures are as previously described. Smith, et al., Thrombosis Research, 5, 163-174 (1988). A CoAScreener coagulation instrument (American LABor, Inc.) is used for all coagulation assay measurements. The prothrombin time (PT) is measured by adding 0.05 ml saline and 0.05 ml Thromboplastin-C reagent to 0.05 ml test plasma. The activated partial thromboplastin time (APTT) is measured by incubation of 0.05 ml test plasma with 0.05 ml Actin reagent for 120 seconds followed by 0.05 ml CaCl2 (0.02M). […] The compounds of formula I are added to human or animal plasma over a wide range of concentrations to determine prolongation effects on the APTT, PT, and TT assays. Linear extrapolations are performed to estimate the concentrations required to double the clotting time for each assay.

Row | Compound | 2 × Clotting time, TT [ng/mL]
11 | CS(=O)(=O)N[C@H](Cc1ccccc1)C(=O)N1CCC[C@H]1C(=O)N[C@H](C=O)CCCNC(=N)N.Cl [Example 7, MeSO2 -D-Phe-Pro-Arg-H.HCl] | 21
12 | CN(C)S(=O)(=O)N[C@H](Cc1ccccc1)C(=O)N1CCC[C@H]1C(=O)N[C@H](C=O)CCCNC(=N)N.Cl [Example 12, Me2 NSO2 -D-Phe-Pro-Arg-H.HCl] | 46

tested on: Human Plasma; assay: Anticoagulation in human plasma, prothrombin time (PT); assay type: biochemical; conditions: concentration required to double the PT
Protocol: as §5

Row | Compound | 2 × Clotting time, PT [ng/mL]
13 | CS(=O)(=O)N[C@H](Cc1ccccc1)C(=O)N1CCC[C@H]1C(=O)N[C@H](C=O)CCCNC(=N)N.Cl [Example 7, MeSO2 -D-Phe-Pro-Arg-H.HCl] | 530
14 | CN(C)S(=O)(=O)N[C@H](Cc1ccccc1)C(=O)N1CCC[C@H]1C(=O)N[C@H](C=O)CCCNC(=N)N.Cl [Example 12, Me2 NSO2 -D-Phe-Pro-Arg-H.HCl] | 480

tested on: not listed separately; assay: Index of bioavailability (plasma TT AUC, p.o. vs i.v.); conditions: rats, adjusted for dose

Row | Compound | Index of Bioavailability, % Relative Activity [%]
15 | CS(=O)(=O)N[C@H](Cc1ccccc1)C(=O)N1CCC[C@H]1C(=O)N[C@H](C=O)CCCNC(=N)N.Cl [Example 7, MeSO2 -D-Phe-Pro-Arg-H.HCl] | 27
16 | CN(C)S(=O)(=O)N[C@H](Cc1ccccc1)C(=O)N1CCC[C@H]1C(=O)N[C@H](C=O)CCCNC(=N)N.Cl [Example 12, Me2 NSO2 -D-Phe-Pro-Arg-H.HCl] | 26

tested on: Human Plasma; assay: Anticoagulation in human plasma, activated partial thromboplastin time (APTT); assay type: biochemical; conditions: concentration required to double the APTT
Protocol: as §5

Row | Compound | 2 × Clotting time, APTT [ng/mL]
17 | CS(=O)(=O)N[C@H](Cc1ccccc1)C(=O)N1CCC[C@H]1C(=O)N[C@H](C=O)CCCNC(=N)N.Cl [Example 7, MeSO2 -D-Phe-Pro-Arg-H.HCl] | 330
18 | CN(C)S(=O)(=O)N[C@H](Cc1ccccc1)C(=O)N1CCC[C@H]1C(=O)N[C@H](C=O)CCCNC(=N)N.Cl [Example 12, Me2 NSO2 -D-Phe-Pro-Arg-H.HCl] | 360
